The source made the active and inactive calls. No cut-off for these calls is given here.
Legend:
[1] = molecular target: T1, Thymidylate synthase (Homo sapiens, UniProt P04818); assay: Inhibition of human thymidylate synthase expressed in Escherichia coli at 50 uM incubated for 1 hr by spectrophotometry
Target sequence in this assay (P04818 2-313 limits assumed): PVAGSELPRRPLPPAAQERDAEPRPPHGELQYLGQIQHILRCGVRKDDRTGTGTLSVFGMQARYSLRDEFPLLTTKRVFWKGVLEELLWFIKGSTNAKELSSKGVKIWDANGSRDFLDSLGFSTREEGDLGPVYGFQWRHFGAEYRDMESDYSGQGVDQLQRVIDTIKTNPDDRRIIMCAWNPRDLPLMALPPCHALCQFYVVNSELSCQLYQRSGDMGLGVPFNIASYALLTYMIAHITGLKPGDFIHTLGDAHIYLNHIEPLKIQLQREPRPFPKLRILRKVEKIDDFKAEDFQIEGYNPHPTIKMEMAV

[2] = Growth inhibition of cDDP-resistant human C13 cells by crystal violet assay; format: functional, cell-based
[3] = molecular target: T1, Thymidylate synthase; assay: Inhibition of human thymidylate synthase expressed in Escherichia coli incubated for 1 hr by spectrophotometry
Target sequence in this assay (P04818 whole entry): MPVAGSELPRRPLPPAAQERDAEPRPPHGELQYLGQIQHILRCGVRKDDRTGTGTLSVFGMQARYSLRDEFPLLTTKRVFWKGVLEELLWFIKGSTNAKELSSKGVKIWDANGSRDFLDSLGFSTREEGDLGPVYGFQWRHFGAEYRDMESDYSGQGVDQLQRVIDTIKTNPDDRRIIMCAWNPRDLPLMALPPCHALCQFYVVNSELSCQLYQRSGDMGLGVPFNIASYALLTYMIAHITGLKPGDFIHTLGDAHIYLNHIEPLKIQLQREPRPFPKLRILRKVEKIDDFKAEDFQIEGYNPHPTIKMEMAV

[4] = system: 2008; assay: Growth inhibition of human 2008 cells by crystal violet assay; format: functional, cell-based
[5] = molecular target: T1, Thymidylate synthase; assay: Inhibition of human thymidylate synthase expressed in Escherichia coli at 100 uM incubated for 1 hr by spectrophotometry
Target sequence in this assay (P04818 2-313 limits assumed): as the sequence (P04818 2-313 limits assumed) above

[6] = system: Vero; assay: Growth inhibition of african green monkey Vero cells by crystal violet assay; format: cell-based; conditions: Chlorocebus sabaeus
[7] = system: A2780; assay: Growth inhibition of human A2780 cells by crystal violet assay; format: functional, cell-based
[8] = molecular target: T1, Thymidylate synthase; assay: Inhibition of human thymidylate synthase expressed in Escherichia coli at 25 uM incubated for 1 hr by spectrophotometry
Target sequence in this assay (P04818 2-313 limits assumed): as above

[9] = Growth inhibition of cDDP-resistant human A2780/CP70 cells by crystal violet assay; format: functional, cell-based
[10] = system: 2008; assay: Increase in ROS production in human 2008 cells at 20 uM incubated for 72 hrs by CM-H2DCFDA dye based fluorometry; format: functional
[11] = system: 2008; assay: Inhibition of DHFR protein expression in human 2008 cells at 20 uM incubated for 72 hrs by Western blotting; format: functional; conditions: Homo sapiens, 2008, 72 h
[12] = system: C13; assay: Increase in ROS production in cDDP-resistant human C13 cells at 40 uM incubated for 72 hrs by CM-H2DCFDA dye based fluorometry; format: functional, cell-based
[13] = system: C13; assay: Increase in ROS production in cDDP-resistant human C13 cells at 20 uM incubated for 72 hrs by CM-H2DCFDA dye based fluorometry; format: functional, cell-based
[14] = system: 2008; assay: Inhibition of DHFR protein expression in human 2008 cells at 40 uM incubated for 72 hrs by Western blotting; format: functional; conditions: Homo sapiens, 2008, 72 h
[15] = system: C13; assay: Effect on thymidylate synthase protein expression in cDDP-resistant human C13 cells at 20 to 40 uM incubated for 72 hrs by Western blotting; format: functional, cell-based
[16] = system: C13; assay: Inhibition of DHFR protein expression in cDDP-resistant human C13 cells at 20 uM incubated for 72 hrs by Western blotting; format: functional, cell-based
[17] = system: 2008; assay: Increase in ROS production in human 2008 cells at 40 uM incubated for 72 hrs by CM-H2DCFDA dye based fluorometry; format: functional
[18] = system: 2008; assay: Effect on thymidylate synthase protein expression in human 2008 cells at 20 to 40 uM incubated for 72 hrs by Western blotting; format: functional, cell-based
[19] = system: C13; assay: Inhibition of DHFR protein expression in cDDP-resistant human C13 cells at 40 uM incubated for 72 hrs by Western blotting; format: functional, cell-based
[20] = molecular target: T1, Thymidylate synthase; assay: Inhibition of human thymidylate synthase expressed in Escherichia coli incubated for 1 hr assessed as reduction in mTHF Vmax value by spectrophotometry based Lineweaver-Burk method relative to untreated control
Target sequence in this assay (P04818 2-313 limits assumed): as above

[21] = molecular target: T1, Thymidylate synthase; assay: Inhibition of human thymidylate synthase expressed in Escherichia coli incubated for 1 hr using varying dUMP levels by spectrophotometry based Lineweaver-Burk method
Target sequence in this assay (P04818 whole entry): as the sequence (P04818 whole entry) above

[22] = molecular target: T1, Thymidylate synthase; assay: Mixed inhibition of human thymidylate synthase expressed in Escherichia coli incubated for 1 hr using varying mTHF and dUMP levels by spectrophotometry based Lineweaver-Burk method
Target sequence in this assay (P04818 2-313 limits assumed): as the sequence (P04818 2-313 limits assumed) above

SMILES | IC50 [2] [µM] | IC50 [3] [µM] | IC50 [4] [µM] | inhibition [5] [%] | IC50 [6] [µM] | IC50 [7] [µM] | IC50 [9] [µM] | further results
COc1ccc(C)cc1NC(=O)C(=O)N/N=C/c1ccc(OCC(N)=O)cc1 | > 60 | 112 | > 60 | – | – | – | – | inhibition [1]: 35%
CCN(CC)CCOC(=O)c1ccc(NS(=O)(=O)c2ccc(C(C)(C)C)cc2)cc1 | > 60 | – | > 60 | 15 | – | – | – | –
CCCCCn1c(=O)c(C(=O)Nc2ccc(N)cc2)c(O)c2ccccc21 | 9.2 | 71 | 8.8 | – | 10.2 | 4.9 | 12.3 | inhibition [8]: 41%
Cc1ccc(C(=O)C2=C(O)C(=O)N(CCN(C)C)C2c2ccc(OCC(N)=O)cc2)o1 (configuration not stated) | > 80 | – | 37.4 | 16 | > 80 | 16.4 | 39.5 | –
O=c1[nH]cc(F)c(=O)[nH]1 [FLUOROURACIL] | 8.5 | – | 4.2 | – | 4.5 | 5.1 | 12.3 | –
O=C(NC(=O)c1cn(CCNCCO)c(=O)[nH]c1=O)OCc1ccccc1 | 56.8 | 619 | 24.1 | 36 | > 80 | 6.6 | 16.5 | fold change (FC) [10]: 1.5; inhibition at 20 µM [11]: 40%; Activity [12]: inactive; Activity [13]: inactive; inhibition at 40 µM [14]: 60%; Activity [15]: inactive; inhibition [16]: inactive; fold change (FC) [17]: 1.5; Activity [18]: inactive; inhibition [19]: inactive
O=C(CC1S/C(=N\N=C\c2ccccc2O)N=C1O)Nc1cccc(C(F)(F)F)c1 (configuration not stated) | 28.3 | 90 | 21.1 | – | 30.3 | 19.4 | 36.4 | inhibition [20]: 60%; Ki [21]: 2.5 µM; inhibition [8]: 33%; inhibition [22]: Active
